Test systems include COLO 205 colon; EKVX NSCLC; HCT-15 colon; HOP-62 NSCLC; IGROV1 ovarian; K-562 leukemia; MDA-N; NCI/ADR-RES ovarian; SF-295 CNS; SK-MEL-28 melanoma; A498 renal.
Common to all, as to assay: growth of human tumour cells (NCI), 48 h

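Results reflect a 48-hour exposure of cells in 96-well plates to compound at five concentrations. TGI denotes the concentration required for complete inhibition of growth.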

For the compound `O=C(CNc1nccs1)Nn1cnc2ccc(S(=O)(=O)Nc3nccs3)cc2c1=O`, the TGI with COLO 205 colon, in the assay on EKVX NSCLC, in the assay on HCT-15 colon, with HOP-62 NSCLC, in the assay with IGROV1 ovarian and in the assay on K-562 leukemia was over 100 µM throughout. Moreover, the TGI in the assay with MDA-N, with NCI/ADR-RES ovarian, in the assay on SF-295 CNS and in the assay with SK-MEL-28 melanoma was over 100 µM each time.
As for `Cc1ccc(S(=O)(=O)/N=C2/N(C)CCCS2(=O)=O)cc1`, the TGI with A498 renal, in the assay with COLO 205 colon, with EKVX NSCLC, in the assay with HCT-15 colon, in the assay on HOP-62 NSCLC and in the assay with IGROV1 ovarian was over 100 µM throughout. The TGI in the assay with K-562 leukemia, in the assay with MDA-N, in the assay on NCI/ADR-RES ovarian, in the assay on SF-295 CNS and with SK-MEL-28 melanoma was over 100 µM in each case.
In the case of `Cc1ccc2n(c1)cc(-c1ccc(/C=N/NC(=N)N/N=C/c3ccc(-c4cn5cc(C)ccc5[n+]4C)cc3)cc1)[n+]2C`, the TGI in the assay on COLO 205 colon, in the assay on EKVX NSCLC, with HCT-15 colon, in the assay on HOP-62 NSCLC, in the assay on IGROV1 ovarian and in the assay with MDA-N was over 100 µM in each case. Also, the figures for the TGI in the assay on NCI/ADR-RES ovarian, in the assay with SF-295 CNS and in the assay with SK-MEL-28 melanoma were over 100 µM, over 100 µM and 33.6 µM, respectively.
Turning to `COCCOC(C)C(=O)C(O)S(=O)(=O)O` (stereo not given), the TGI with A498 renal, in the assay with COLO 205 colon, in the assay with EKVX NSCLC, in the assay on HCT-15 colon, in the assay with HOP-62 NSCLC and with IGROV1 ovarian was over 100 µM in each case. The TGI with K-562 leukemia, in the assay on MDA-N, in the assay with NCI/ADR-RES ovarian, in the assay with SF-295 CNS and in the assay on SK-MEL-28 melanoma was over 100 µM each time.
For `C/C(=N\NC(=O)CC#N)C(CN1CCCCC1)C(c1ccccc1)c1c(O)c2ccccc2oc1=O` (stereo not given), the TGI in the assay on A498 renal was 82.5 µM; in the assay on COLO 205 colon, 32.6 µM; in the assay with EKVX NSCLC, over 100 µM; in the assay with HCT-15 colon, over 100 µM; in the assay with IGROV1 ovarian, over 100 µM; with K-562 leukemia, over 100 µM. In addition, the TGI in the assay on MDA-N, with NCI/ADR-RES ovarian and in the assay on SK-MEL-28 melanoma was over 100 µM each time.
For the compound `CCCCCCCCCC(O)CC(=O)c1c(O)cccc1O` (stereo not given), the TGI came to 88.5 µM with A498 renal; 91.7 µM in the assay with COLO 205 colon; 45.5 µM in the assay on EKVX NSCLC; 39.4 µM in the assay with HCT-15 colon; 33.1 µM in the assay with HOP-62 NSCLC; 36.8 µM in the assay with IGROV1 ovarian. The TGI in the assay with K-562 leukemia is 49.5 µM; in the assay with MDA-N, 51.6 µM; in the assay on NCI/ADR-RES ovarian, 38.5 µM; in the assay on SF-295 CNS, 39.1 µM; in the assay with SK-MEL-28 melanoma it was over 100 µM.
Take `COc1cc(S(=O)(=O)Nc2ccc(-c3csc(N4C(=O)C(Cl)C4c4cccc(Oc5ccccc5)c4)n3)cc2)ccc1Cl` (stereo not given): the TGI in the assay on A498 renal is 64.8 µM; with COLO 205 colon, 45.5 µM; in the assay on EKVX NSCLC, 52 µM; with HCT-15 colon it was over 100 µM; with HOP-62 NSCLC, over 100 µM; in the assay on IGROV1 ovarian, 7.45 µM. The TGI in the assay with K-562 leukemia was 91.2 µM; in the assay with MDA-N, 64.7 µM; in the assay with NCI/ADR-RES ovarian it was over 100 µM; with SF-295 CNS it was over 100 µM; in the assay with SK-MEL-28 melanoma, 79.8 µM.
As to `CC(C(=O)NCCNC(=O)CCC(=O)N(C)O)C(=O)NCCNC(=O)CCC(=O)N(C)O`, the TGI in the assay on A498 renal, with COLO 205 colon, with EKVX NSCLC, in the assay with HCT-15 colon, with HOP-62 NSCLC and with IGROV1 ovarian was over 100 µM each time. Moreover, the TGI with K-562 leukemia, in the assay on MDA-N, in the assay with NCI/ADR-RES ovarian, with SF-295 CNS and in the assay with SK-MEL-28 melanoma was over 100 µM in each case.
On to `CCOC(=O)CCC(NC(=O)c1ccc(Nc2nc3cc(C(F)(F)F)ccc3nc2C(=O)OCC)cc1)C(=O)OCC` (stereo not given), for which the TGI with COLO 205 colon is over 100 µM; in the assay with EKVX NSCLC it was 38 µM; with HCT-15 colon, over 100 µM; in the assay on HOP-62 NSCLC, 27 µM; in the assay with IGROV1 ovarian it was 43.5 µM; in the assay on K-562 leukemia it was over 100 µM. Also, the TGI is 21.3 µM in the assay with MDA-N, 29.7 µM with NCI/ADR-RES ovarian, 19.3 µM with SF-295 CNS and 27.9 µM in the assay with SK-MEL-28 melanoma.
On to `CSc1c2c(C)n[nH]c2nn1-c1ccccc1`, for which the TGI with A498 renal, in the assay on COLO 205 colon, in the assay with EKVX NSCLC, with HCT-15 colon, in the assay on K-562 leukemia and in the assay on MDA-N was over 100 µM each time. Further, the TGI with NCI/ADR-RES ovarian and with SK-MEL-28 melanoma was over 100 µM in each case.
With `CC(=O)NNC(=S)/N=C\c1c(O)c2ccccc2oc1=O`, the TGI in the assay on A498 renal, in the assay with COLO 205 colon, with HCT-15 colon, in the assay on HOP-62 NSCLC, in the assay on IGROV1 ovarian and in the assay on K-562 leukemia was over 100 µM throughout. For the same compound, the TGI in the assay on MDA-N, in the assay on NCI/ADR-RES ovarian, in the assay with SF-295 CNS and in the assay on SK-MEL-28 melanoma was over 100 µM in each case.
For the compound `CC(=O)OC12CC(C(F)(F)F)(C(F)(F)F)OC1(OC(C)=O)CC(C(F)(F)F)(C(F)(F)F)O2` (stereo not given), the TGI with A498 renal was 8.57 µM; with COLO 205 colon, 25.6 µM; with HCT-15 colon, over 100 µM; in the assay on HOP-62 NSCLC, over 100 µM; in the assay on IGROV1 ovarian, over 100 µM; in the assay on K-562 leukemia, over 100 µM. Also, the TGI in the assay on MDA-N, in the assay on NCI/ADR-RES ovarian, with SF-295 CNS and with SK-MEL-28 melanoma was over 100 µM throughout.
As to `COC(=O)[C@H]1[C@@H](O)[C@@]2(O)c3c(OC)cc(OC)cc3O[C@@]2(c2ccc3c(c2)OCO3)[C@@H]1c1ccccc1`, the TGI in the assay with A498 renal is over 50 µM; in the assay on COLO 205 colon it was 0.0686 µM; with EKVX NSCLC, over 33.3 µM; in the assay on HCT-15 colon it was 0.107 µM; in the assay with HOP-62 NSCLC it was 0.68 µM; in the assay with IGROV1 ovarian, 0.666 µM. Besides, the TGI with MDA-N stood at 2.34 µM; in the assay with NCI/ADR-RES ovarian, 0.241 µM; in the assay on SF-295 CNS, 0.143 µM.

The record behind these values is PubChem BioAssay (NCI).
